The values below are quoted from earlier work in patent US8476252B2, “Pharmaceutical emulsion compositions comprising progestogen” (Besins Healthcare Luxembourg SARL, priority 2010, dated 2013).

For this series, the system named is TBI patients. The settings on record: Xiao et al 2008, Wright et al 2007.

For `CC(=O)[C@H]1CC[C@H]2[C@@H]3CCC4=CC(=O)CC[C@]4(C)[C@H]3CC[C@]12C` [progesterone, pregn-4-ene-3,20-dione], the Safety and tolerability entry (TBI patients) was “safe and well tolerated”. Where the note is “administration of progesterone to TBI patients”, the Mortality result is given as “decreased mortality”.
